According to PubChem BioAssay (NCI):
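Interpolation was linear, between the two tested concentrations surrounding the appropriate level; five concentrations were tested over 48 hours in 96-well plates. TGI is the concentration that stops growth completely.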

Columns and labels:
Assay in all cases: inhibition of tumour cell growth, NCI panel, 48 h
MDA-MB-231 breast = tested on: MDA-MB-231 breast
NCI-H226 lung = tested on: NCI-H226 lung
SN12C renal = tested on: SN12C renal
NCI-H460 lung = tested on: NCI-H460 lung
HCC-2998 colon = tested on: HCC-2998 colon
HOP-62 NSCLC = tested on: HOP-62 NSCLC
SW-620 colon = tested on: SW-620 colon
OVCAR-4 ovarian = tested on: OVCAR-4 ovarian
U251 CNS = tested on: U251 CNS
T-47D breast = tested on: T-47D breast
SK-OV-3 ovarian = tested on: SK-OV-3 ovarian
PC-3 prostate = tested on: PC-3 prostate
SNB-19 CNS = tested on: SNB-19 CNS
K-562 leukemia = tested on: K-562 leukemia
HCT-15 colon = tested on: HCT-15 colon
SF-539 CNS = tested on: SF-539 CNS
OVCAR-3 ovarian = tested on: OVCAR-3 ovarian
SNB-75 CNS = tested on: SNB-75 CNS
HT29 colon = tested on: HT29 colon
MDA-MB-435 = tested on: MDA-MB-435
MDA-N = tested on: MDA-N
NCI-H522 lung = tested on: NCI-H522 lung
COLO 205 colon = tested on: COLO 205 colon
SK-MEL-2 melanoma = tested on: SK-MEL-2 melanoma
CAKI-1 renal = tested on: CAKI-1 renal
SNB-78 CNS = tested on: SNB-78 CNS
TK-10 renal = tested on: TK-10 renal
SF-295 CNS = tested on: SF-295 CNS
EKVX NSCLC = tested on: EKVX NSCLC
HOP-18 NSCLC = tested on: HOP-18 NSCLC
M14 melanoma = tested on: M14 melanoma
HL-60(TB) leukemia = tested on: HL-60(TB) leukemia
CCRF-CEM leukemia = tested on: CCRF-CEM leukemia
DLD-1 colon = tested on: DLD-1 colon
ACHN renal = tested on: ACHN renal
LXFL 529 NSCLC = tested on: LXFL 529 NSCLC
SR leukemia = tested on: SR leukemia
RPMI-8226 leukemia = tested on: RPMI-8226 leukemia
A549 NSCLC = tested on: A549 NSCLC
DMS 273 small cell lung = tested on: DMS 273 small cell lung
OVCAR-5 ovarian = tested on: OVCAR-5 ovarian
KM20L2 colon = tested on: KM20L2 colon
SK-MEL-28 melanoma = tested on: SK-MEL-28 melanoma
KM12 colon = tested on: KM12 colon
NCI-H23 lung = tested on: NCI-H23 lung
UO-31 renal = tested on: UO-31 renal
NCI/ADR-RES ovarian = tested on: NCI/ADR-RES ovarian
IGROV1 ovarian = tested on: IGROV1 ovarian
HCT-116 colon = tested on: HCT-116 colon
MCF7 breast = tested on: MCF7 breast
BT-549 breast = tested on: BT-549 breast
RXF 393 renal = tested on: RXF 393 renal
SK-MEL-5 melanoma = tested on: SK-MEL-5 melanoma
UACC-62 melanoma = tested on: UACC-62 melanoma
MOLT-4 leukemia = tested on: MOLT-4 leukemia
SF-268 CNS = tested on: SF-268 CNS
DU-145 prostate = tested on: DU-145 prostate
786-0 renal = tested on: 786-0 renal
LOX IMVI melanoma = tested on: LOX IMVI melanoma
RXF-631 renal = tested on: RXF-631 renal
HS 578T breast = tested on: HS 578T breast
MALME-3M melanoma = tested on: MALME-3M melanoma
UACC-257 melanoma = tested on: UACC-257 melanoma
M19-MEL melanoma = tested on: M19-MEL melanoma
HOP-92 NSCLC = tested on: HOP-92 NSCLC
OVCAR-8 ovarian = tested on: OVCAR-8 ovarian
A498 renal = tested on: A498 renal
DMS 114 small cell lung = tested on: DMS 114 small cell lung
XF 498 CNS = tested on: XF 498 CNS

`C=CCc1cc(-c2cc(CC=C)c(O)c(CN(CCCl)CCCl)c2)cc(CN(CCCl)CCCl)c1O` gave a TGI (MDA-MB-231 breast) of 45.2 µM, a TGI (NCI-H226 lung) of 33.5 µM and a TGI (SN12C renal) of 27.7 µM. It also gave a TGI (NCI-H460 lung) of 29.1 µM, a TGI (HCC-2998 colon) of 29.2 µM and a TGI (HOP-62 NSCLC) of 43.5 µM. It also gave a TGI (SW-620 colon) of 27.7 µM, a TGI (OVCAR-4 ovarian) of 52.6 µM and a TGI (U251 CNS) of 24.8 µM. It also gave a TGI (T-47D breast) of 24.8 µM, a TGI (SK-OV-3 ovarian) of 46.9 µM and a TGI (PC-3 prostate) of 25.8 µM. The TGI (SNB-19 CNS) was 51.8 µM, the TGI (K-562 leukemia) was > 100 µM and the TGI (HCT-15 colon) was 38 µM. The TGI (SF-539 CNS) was 36.3 µM, the TGI (OVCAR-3 ovarian) was 36.2 µM and the TGI (SNB-75 CNS) was 58.6 µM. For the same compound, the TGI (HT29 colon) was 33.3 µM, the TGI (MDA-MB-435) was 31.1 µM and the TGI (MDA-N) was 35 µM. The TGI (NCI-H522 lung) was 27.3 µM, the TGI (COLO 205 colon) was 43.4 µM and the TGI (SK-MEL-2 melanoma) was 40.6 µM. For the same compound, the TGI (CAKI-1 renal) was 34.6 µM, the TGI (SNB-78 CNS) was > 100 µM and the TGI (TK-10 renal) was 38.8 µM. It also gave a TGI (SF-295 CNS) of 38.7 µM, a TGI (EKVX NSCLC) of 22.5 µM and a TGI (HOP-18 NSCLC) of 67 µM. The TGI (M14 melanoma) was 38.3 µM, the TGI (HL-60(TB) leukemia) was > 100 µM and the TGI (CCRF-CEM leukemia) was > 100 µM. For the same compound, the TGI (DLD-1 colon) was 36.2 µM, the TGI (ACHN renal) was 21.9 µM and the TGI (LXFL 529 NSCLC) was 29.7 µM. For the same compound, the TGI (SR leukemia) was > 100 µM, the TGI (RPMI-8226 leukemia) was > 100 µM and the TGI (A549 NSCLC) was 45.3 µM. The TGI (DMS 273 small cell lung) was 30.3 µM, the TGI (OVCAR-5 ovarian) was 35.4 µM and the TGI (KM20L2 colon) was 35.4 µM. For the same compound, the TGI (SK-MEL-28 melanoma) was 40.2 µM, the TGI (KM12 colon) was 36.7 µM and the TGI (NCI-H23 lung) was 22.1 µM. The TGI (UO-31 renal) was 32.1 µM, the TGI (NCI/ADR-RES ovarian) was 78.4 µM and the TGI (IGROV1 ovarian) was 38.9 µM. The TGI (HCT-116 colon) was 25.3 µM, the TGI (MCF7 breast) was 42.7 µM and the TGI (BT-549 breast) was 66.9 µM. It also gave a TGI (RXF 393 renal) of 35.8 µM, a TGI (SK-MEL-5 melanoma) of 32.7 µM and a TGI (UACC-62 melanoma) of 28.9 µM. For the same compound, the TGI (MOLT-4 leukemia) was > 100 µM, the TGI (SF-268 CNS) was 47.8 µM and the TGI (DU-145 prostate) was 30.8 µM. For the same compound, the TGI (786-0 renal) was 37.9 µM, the TGI (LOX IMVI melanoma) was > 80.8 µM and the TGI (RXF-631 renal) was 39.3 µM. The TGI (HS 578T breast) was > 100 µM, the TGI (MALME-3M melanoma) was 42.6 µM and the TGI (UACC-257 melanoma) was 33.7 µM. The TGI (M19-MEL melanoma) was 34.7 µM, the TGI (HOP-92 NSCLC) was 32.2 µM and the TGI (OVCAR-8 ovarian) was 74.1 µM. For the same compound, the TGI (A498 renal) was 40.5 µM.

For `COC(=O)C1=C(O)c2cc(OC)c(OC)c(OC)c2[C@H](c2cc(OC)c(OC)c(OC)c2)C1C(=O)OC` (some centres not stated), the TGI (NCI-H226 lung) was > 100 µM, the TGI (SN12C renal) was > 100 µM and the TGI (NCI-H460 lung) was > 100 µM. The TGI (HCC-2998 colon) was 83.9 µM, the TGI (HOP-62 NSCLC) was > 100 µM and the TGI (SW-620 colon) was > 100 µM. The TGI (OVCAR-4 ovarian) was > 100 µM, the TGI (U251 CNS) was > 100 µM and the TGI (SK-OV-3 ovarian) was > 100 µM. The TGI (DMS 114 small cell lung) was 87.7 µM, the TGI (SNB-19 CNS) was > 100 µM and the TGI (K-562 leukemia) was 86.1 µM. For the same compound, the TGI (HCT-15 colon) was > 100 µM, the TGI (SF-539 CNS) was 38.9 µM and the TGI (OVCAR-3 ovarian) was 58.4 µM. For the same compound, the TGI (SNB-75 CNS) was > 100 µM, the TGI (HT29 colon) was 61.6 µM and the TGI (NCI-H522 lung) was 43.5 µM. The TGI (COLO 205 colon) was 37.9 µM, the TGI (CAKI-1 renal) was > 100 µM and the TGI (SNB-78 CNS) was > 100 µM. The TGI (TK-10 renal) was > 100 µM, the TGI (SF-295 CNS) was 98.1 µM and the TGI (EKVX NSCLC) was > 100 µM. The TGI (M14 melanoma) was > 100 µM, the TGI (HL-60(TB) leukemia) was 61.6 µM and the TGI (CCRF-CEM leukemia) was > 100 µM. The TGI (DLD-1 colon) was > 100 µM, the TGI (ACHN renal) was > 100 µM and the TGI (LXFL 529 NSCLC) was > 100 µM. For the same compound, the TGI (RPMI-8226 leukemia) was 87.1 µM, the TGI (XF 498 CNS) was > 100 µM and the TGI (A549 NSCLC) was > 100 µM. The TGI (DMS 273 small cell lung) was 51.4 µM, the TGI (OVCAR-5 ovarian) was > 100 µM and the TGI (KM20L2 colon) was 37.5 µM. The TGI (SK-MEL-28 melanoma) was > 100 µM, the TGI (KM12 colon) was > 100 µM and the TGI (NCI-H23 lung) was > 100 µM. The TGI (UO-31 renal) was > 100 µM, the TGI (IGROV1 ovarian) was > 100 µM and the TGI (HCT-116 colon) was > 100 µM. The TGI (RXF 393 renal) was 59.5 µM, the TGI (SK-MEL-5 melanoma) was > 100 µM and the TGI (UACC-62 melanoma) was 76 µM. For the same compound, the TGI (MOLT-4 leukemia) was 68.3 µM, the TGI (SF-268 CNS) was > 100 µM and the TGI (786-0 renal) was > 100 µM. The TGI (LOX IMVI melanoma) was > 100 µM, the TGI (RXF-631 renal) was 97.2 µM and the TGI (MALME-3M melanoma) was > 100 µM. The TGI (UACC-257 melanoma) was > 100 µM, the TGI (HOP-92 NSCLC) was 69.3 µM and the TGI (OVCAR-8 ovarian) was > 100 µM. The TGI (A498 renal) was > 100 µM.
